Legend:
PfRuvB3 [1] = test: PfRuvB3 unwinding activity: requirement of co-factors and effects of salt/EDTA; type: biochemical, Plasmodium falciparum; conditions: for Relative activity (%), PfRuvB3 unwinding activity: standard reaction = 35
Experimental: (§1) Unwinding of [^32P]-labelled partial duplex DNA was employed as a measurement of helicase activity. The reaction mixture (10 µl) contained 20 mM Tris–HCl pH 9.0, 8 mM DTT, 2 mM MgCl2, 2 mM ATP, 10 mM KCl, 4% (w/v) sucrose, […] BSA, [^32P]-labelled DNA duplex substrate (Table 1) and purified PfRuvB3. The assay was performed at 37 °C for 90 min (unless indicated otherwise) and terminated with addition of 10X DNA loading dye (Fermentas, USA) and further incubation at 37 °C for 5 min. Helicase substrate and product were separated by 12% non-denaturing PAGE and then the gel was exposed to an X-ray film. DNA unwinding was quantified by densitometric analysis of exposed substrate and product bands using GeneTools (Syngene). Percent unwinding is calculated using the following formula: [band density of product [single-stranded (ss)DNA] / (band density of ssDNA + band density of substrate (duplex DNA)] × 100 minus [percent unwinding in the absence of enzyme].
The ability of PfRuvB3 to hydrolyze different NTPs was studied by including 2 mM dATP, dCTP, dGTP, or dTTP in place of ATP in the standard reaction assay. The effects of ATP concentrations ranging from 0.3 to 20 mM on helicase activity were also determined. Divalent cation requirement was investigated mixture 2 mM CaCl2, CuCl2, NiSO4, ZnCl2, FeSO4, MnCl2 or MgSO4 in place of MgCl2. Effects of salt (0-200 mM NaCl in place of 10 mM KCl) and EDTA (5 mM) also were evaluated.

PfRuvB3 [2] = test: Effect of DNA helicase inhibitors on PfRuvB3 unwinding (helicase) activity; type: biochemical, Plasmodium falciparum; conditions: recombinant PfRuvB3; M13-17-mer duplex DNA pre-incubated with 0.1 to 50 μM drug for 10 min; 37 °C 90 min
Experimental: as §1
Known DNA helicase inhibitors, aphidicolin genistein, daunorubicin, doxorubicin, mitoxantrone, and netropsin (Sigma, USA) were prepared as 10^−2 M stock solutions in dimethylsulfoxide (DMSO) and stored at −20 °C until used. All compounds were diluted with 10 mM Tris–HCl, pH 9.0 to specified concentrations for the assay. M13-17-mer duplex DNA was pre-incubated with 0.1 to 50 μM drug for 10 min prior to addition to the standard helicase assay mixture. The 0.5% (v/v final concentration) of DMSO was used as solvent control to determine its effects on helicase activity. The dose–response curves of relative activities of PfRuvB3 and various drug concentrations were generated, and half-maximal inhibitory concentration (IC50), the concentration of compound to inhibit enzyme activity by 50%, was obtained using GraphPad Prism 6.01 software.

parasite growth = test system: parasite growth; design: method as in PMID 16772048; conditions: read-out: IC50, parasite growth inhibition; cited from earlier work
[3] = molecular target: P. falciparum UvrD helicase (PfUDN); conditions: cited from earlier work
[4] = molecular target: P. falciparum 45 kDa helicase (PfH45); design: method as in PMID 17822710; conditions: cited from earlier work
[5] = molecular target: P. falciparum 60 kDa DNA helicase (PfDH60); design: method as in PMID 16884495; conditions: cited from earlier work
[6] = test system: P. falciparum Dbp5/DDX19 homolog (PfD66); design: method as in PMID 21980563; conditions: cited from earlier work
[7] = molecular target: P. falciparum DNA helicase A (PfDH A); design: method as in PMID 16772048; conditions: cited from earlier work
[8] = molecular target: human DNA helicase (HDH II); design: method as in PMID 1614415; conditions: cited from earlier work
[9] = 2 mM dNTP in place of ATP, 1 μg PfRuvB3
[10] = 2 mM divalent cation salt in place of MgCl2, 1 μg PfRuvB3

In the case of `Nc1ccn([C@H]2C[C@H](O)[C@@H](COP(=O)(O)OP(=O)(O)OP(=O)(O)O)O2)c(=O)n1` [dCTP], the “Relative activity (%), PfRuvB3 unwinding activity” value (shortened to “Relative activity (%)”) (PfRuvB3 [1]; [9]) is reported as <2%.

With `[Cl-].[Na+]` [NaCl] the “Unwinding activity of PfRuvB3” value (PfRuvB3 [1]; 100 mM NaCl) was “almost absent”, the “Relative activity (%)” value (PfRuvB3 [1]; +NaCl (200 mM)) was <2% and the Enzyme activity inhibited (PfRuvB3 [1]; NaCl 200 mM) was ~98%.

For `COc1cccc2c1C(=O)c1c(O)c3c(c(O)c1C2=O)C[C@@](O)(C(=O)CO)C[C@@H]3O[C@H]1C[C@H](N)[C@H](O)[C@H](C)O1` [doxorubicin], the IC50 (PfRuvB3 [2]) is listed as 2600 nM and the IC50 (parasite growth) is listed as 1500 nM.

With `Nc1ncnc2c1ncn2[C@H]1C[C@H](O)[C@@H](COP(=O)(O)OP(=O)(O)OP(=O)(O)O)O1` [dATP] the “Relative activity (%)” value (PfRuvB3 [1]; [9]) was 33%.

With `O=S(=O)([O-])[O-].[Fe+2]` [FeSO4] the “Relative activity (%)” value (PfRuvB3 [1]; [10]) was <2%.

For `Cn1cc(NC(=O)c2cc(NC(=O)CN=C(N)N)cn2C)cc1C(=O)NCCC(=N)N` [netropsin], the IC50 (PfRuvB3 [2]) is given as 7090 nM, the IC50 [3] is given as 3300 nM and the IC50 [4] is given as 800 nM. For the same compound, the IC50 [5] was 500 nM and the IC50 [6] was 3200 nM.

With `[Cl-].[Cl-].[Zn+2]` [ZnCl2] the “Relative activity (%)” value (PfRuvB3 [1]; [10]) was 30%.

For `COc1cccc2c1C(=O)c1c(O)c3c(c(O)c1C2=O)C[C@@](O)(C(C)=O)C[C@@H]3O[C@H]1C[C@H](N)[C@H](O)[C@H](C)O1` [daunorubicin], the IC50 (PfRuvB3 [2]) is listed as 760 nM, the IC50 [7] is listed as 2000 nM and the IC50 [3] is listed as 4400 nM. For the same compound, the IC50 [4] was 5000 nM, the IC50 [5] was 3000 nM and the IC50 [8] was 6230 nM. The IC50 (parasite growth) was 2500 nM.

For `Nc1nc2c(ncn2[C@H]2C[C@H](O)[C@@H](COP(=O)(O)OP(=O)(O)OP(=O)(O)O)O2)c(=O)[nH]1` [dGTP], the “Relative activity (%)” value (PfRuvB3 [1]; [9]) was <2%.

With `[Cl][Mn][Cl]` [MnCl2] the “Relative activity (%)” value (PfRuvB3 [1]; [10]) was <2%.

For `Cc1cn([C@H]2C[C@H](O)[C@@H](COP(=O)(O)OP(=O)(O)OP(=O)(O)O)O2)c(=O)[nH]c1=O` [dTTP], the “Relative activity (%)” value (PfRuvB3 [1]; [9]) was <2%.

For `O=c1c(-c2ccc(O)cc2)coc2cc(O)cc(O)c12` [genistein], the IC50 (PfRuvB3 [2]) was > 50000 nM.

For `[Ca+2].[Cl-].[Cl-]` [CaCl2], the “Relative activity (%)” value (PfRuvB3 [1]; [10]) was <2%.

With `O=S(=O)([O-])[O-].[Mg+2]` [MgSO4] the “Relative activity (%)” value (PfRuvB3 [1]; [10]) was 37%.

With `[Cl][Ni][Cl]` [NiCl2] the “Relative activity (%)” value (PfRuvB3 [1]; [10]) was 34%.

For `O=C(O)CN(CCN(CC(=O)O)CC(=O)O)CC(=O)O` [EDTA], the “Relative activity (%)” value (PfRuvB3 [1]; +EDTA (5 mM)) was <2% and the Helicase function (PfRuvB3 [1]; EDTA 5 mM added to reaction mixture) was “complete loss of helicase function”.

For `C[C@@]1(CO)[C@H](O)CC[C@@]2(C)[C@H]1CC[C@H]1C[C@@H]3C[C@@]12CC[C@]3(O)CO` [aphidicolin], the IC50 (PfRuvB3 [2]) was > 50000 nM.

With `O=C1c2c(O)ccc(O)c2C(=O)c2c(NCCNCCO)ccc(NCCNCCO)c21` [mitoxantrone] the IC50 (PfRuvB3 [2]) was > 50000 nM.

With `[Cl][Cu][Cl]` [CuCl2] the “Relative activity (%)” value (PfRuvB3 [1]; [10]) was 36%.

— paper PMC5093981 (Malaria Journal, 2016)
